Assay results from patent publication US20240398790A1 (ABBVIE INC., priority 2021, published 2024).

Tests used:
[1] = tested on: AS; details: literature; cited from earlier work
[2] = tested on: adult subjects with active ankylosing spondylitis (AS) who had an inadequate response to biologic disease-modifying anti-rheumatic drug therapy (bDMARD-IR); experiment: SELECT AXIS 2 Study 1, safety up to Week 14
[3] = tested on: adult subjects with active ankylosing spondylitis (AS) who had an inadequate response to biologic disease-modifying anti-rheumatic drug therapy (bDMARD-IR); experiment: SELECT AXIS 2 Study 1, Phase 3 placebo-controlled, efficacy at Week 14; format: in vivo, human
[4] = tested on: bDMARD-naïve patients with AS who had an inadequate response to non-steroidal anti-inflammatory drugs (NSAIDs); details: cited from earlier work
[5] = tested on: adult subjects with active ankylosing spondylitis (AS) who had an inadequate response to biologic disease-modifying anti-rheumatic drug therapy (bDMARD-IR); details: human, in vivo
[6] = AESI up to Week 14, N = 211, listed as Upadacitinib
[7] = AESI up to Week 14, N = 211, listed as upadacitinib freebase
[8] = CTCAE V4, Double-Blind Period (Week 14)
[9] = up to Week 14, N = 211, listed as RINVOQ

## ustekinumab: IL-12/23 inhibitor
[1]
  efficacy achieved in AS: low efficacy

## CC[C@@H]1CN(C(=O)NCC(F)(F)F)C[C@@H]1c1cnc2cnc3[nH]ccc3n12 [upadacitinib, (3S,4R)-3-ethyl-4-(3H-imidazo[1,2-a]pyrrolo[2,3-e]pyrazin-8-yl)-N-(2,2,2-trifluoroethyl)pyrrolidine-1-carboxamide]
[2]; 15 mg QD, up to Week 14, N = 211
  Adverse event (AE), %: (40.8) %
[2]; 15 mg, through week 14
  Serious infections, proportion of patients: 2.4%
  herpes zoster, proportion of patients: 0.9%
[2]; AESI up to Week 14, N = 211
  Active tuberculosis: 0 (0.0) n (%)
  Anemia: 3 (1.4) n (%)
  Hepatic disorder: 6 (2.8) n (%)
  Herpes zoster: 2 (0.9) n (%)
  Infection: 31 (14.7) n (%)
  Lymphoma: 0 (0.0) n (%)
  Lymphopenia: 1 (0.5) n (%)
  Malignancy: No malignancy
  Malignancy other than NMSC: 0 (0.0) n (%)
  Neutropenia: 6 (2.8) n (%)
  Non-melanoma skin cancer (NMSC): 0 (0.0) n (%)
  Renal dysfunction: 0 (0.0) n (%)
  Serious infection: 5 (2.4) n (%)
[2]; [6]
  Adjudicated MACE: 0 (0.0) n (%)
  Adjudicated gastrointestinal perforation: 0 (0.0) n (%)
  Adjudicated venous thromboembolic events: 0 (0.0) n (%)
  Malignancy: 0 (0.0) n (%)
[2]; [7]
  Adjudicated MACE: no events
  Adjudicated gastrointestinal perforation: no events
  Adjudicated venous thromboembolic events: no events
  Malignancy: no events
[2]; [8]
  ALT (U/L) Grade 4 (>20.0 xULN): 0/211
  AST (U/L) Grade 4 (>20.0 xULN): 0/211
  Creatinine (umol/L) Grade 3 (>3.0-6.0 xULN or >3.0 xBaseline): 0/211
  Creatinine (umol/L) Grade 4 (>6.0 xULN): 0/211
  Hemoglobin (g/L) Grade 3 (<80): 0/211
  Lymphocytes (10^9/L) Grade 4 (<0.2): 0/211
  Neutrophils (10^9/L) Grade 4 (<0.5): 0/211
[2]; Phase 3 AS bDMARD-IR study
  safety profile: no new risks were identified
[2]; as assessed by investigator, up to Week 14, N = 211
  AE with reasonable possibility of being related to study treatment, %: (17.1) %
[2]; up to Week 14
  hepatic disorders reported, nature: mild or moderate transaminase elevations
[2]; up to Week 14, N = 211
  AE leading to death, %: (0.0) %
  AE leading to withdrawal of study treatment, %: (0.0) %
  All deaths, %: (0.0) %
  Serious AE, %: (2.8) %
  Severe AE, %: (3.3) %
[2]; [9]
  AE leading to withdrawal of study treatment, %: 0%
  Serious AE, %: 2.8%
[3]
  AS QoL, UPA-PBO: −3.07
  ASDAS(CRP) Low Disease Activity, UPA-PBO: 34.0
  ASDAS(CRP), UPA-PBO: −1.02
  BASFI (Function), UPA-PBO: −1.17
  BASMI (Mobility), UPA-PBO: −0.32
  MASES (Enthesitis): −2.6
  MASES (Enthesitis), UPA-PBO: −1.5
  MRI Spine SPARCC, UPA-PBO: −3.90
  Nocturnal Back Pain, UPA-PBO: −1.7
  Total Back Pain, UPA-PBO: −1.53
[3]; 15 mg
  AS QoL: −5.10
  ASDAS(CRP): −1.52
  BASFI (Function): −2.26
  BASMI (Mobility): −0.48
  MRI Spine SPARCC: −3.95
  Nocturnal Back Pain: −3.2
  Total Back Pain: −3.00
  onset of effect in ASAS40: 4 Week
[3]; 15 mg QD, Week 14, NRI-MI
  ASDAS(CRP) Low Disease Activity: 44.1%
[4]; SELECT-AXIS 1, Week 14
  ASAS40 response at Week 14 (primary endpoint) versus placebo: significantly greater achievement
[4]; SELECT-AXIS 1, up to and including Week 64
  efficacy once achieved at Week 14, over time: sustained or improved over time
[5]
  Opportunistic infection excluding tuberculosis and herpes zoster: 0 (0.0) n (%)
[5]; 14 weeks
  COVID-19 related AE, %: (5.7) %

## tocilizumab: IL-6 inhibitor
[1]
  efficacy achieved in AS: low efficacy

B1: sarilumab: IL-6 inhibitor (antibody, chains of the INN, looked up, V domains shown)
VH: EVQLVESGGGLVQPGRSLRLSCAASRFTFDDYAMHWVRQAPGKGLEWVSGISWNSGRIGYADSVKGRFTISRDNAENSLFLQMNGLRAEDTALYYCAKGRDSFDIWGQGTMVTVSS
VL: DIQMTQSPSSVSASVGDRVTITCRASQGISSWLAWYQQKPGKAPKLLIYGASSLESGVPSRFSGSGSGTDFTLTISSLQPEDFASYYCQQANSFPYTFGQGTKLEIK
[1]
  efficacy achieved in AS: low efficacy
